The source of these data is PubChem BioAssay AID2423 (Broad Institute, 2010).

Inconclusive results are not listed. Active and inactive are the calls of the source. No rule for the calls is given here.

This assay concerns C. albicans CaCi-8 + fluconazole, Alamar Blue growth, 48 h. Nature of the assay: resistant C. albicans growth inhibition with fluconazole, dose response, CaCi-8 strain, Alamar Blue fluorescence (AID 2423).
For orientation: EC50 means the concentration giving half of the maximal effect. Regarding `C(=C\c1ccccc1)/C=N/Nc1nc(N2CCCCC2)nc(N2CCCCC2)n1`, the EC50 is > 15000 nM (inactive). As for `CC1(C)C(O)=C(c2nc3ccccc3[nH]2)C(=N)N1c1ccccc1`, the figure is 9820 nM; as for `CCNc1nc(N)nc(-c2cc(Cl)ccc2O)n1`, 1900 nM; as for `NC(=S)NNc1cccc(Cl)c1`, > 16000 nM (inactive). As to `CCCCCCC[n+]1ccc(-c2cc[n+](CCCCCCC)cc2)cc1`, the EC50 is less than 120 nM. `O=C(N/N=C/c1cc(Br)c(Br)o1)c1ccc2c(c1)OCCO2`: the half-maximal effective concentration (EC50) is 643 nM. As for `CCN(CC)S(=O)(=O)c1ccc(N/N=C(\C)c2ccc(OC)cc2O)nc1`, the EC50 is > 16000 nM (inactive). Take `CCn1c(C)nc2cc(C(=O)N/N=C/c3ccc(O)c(O)c3O)ccc21`: the EC50 is 989 nM.

Consider `O=C(N/N=C/c1ccc(Cl)cc1Cl)Nc1ccccc1`, for which the EC50 was > 16000 nM (inactive).

As for `O=[N+]([O-])c1c(C(Cl)Cl)nn(-c2ccc(Cl)cc2)c1N1CCCCC1`, the EC50 was 441 nM. Regarding `Cc1cc2ccccn2c1C(C[N+](=O)[O-])c1c(F)cccc1Cl` (configuration not stated), the EC50 was 382 nM.

Turning to `Cc1ccc(NC(=O)NNC(=O)c2cc3ccccc3cc2O)c(C)c1`, the EC50 was > 15000 nM (inactive).

Consider `O=C(COc1ccccc1)NNC(=S)NC(=O)c1ccc(Cl)cc1Cl`, for which the EC50 is 4840 nM.

In the case of `O=C(NC1CCCCC1)c1cc([N+](=O)[O-])[nH]n1`, the EC50 was 1120 nM.

With `CCOc1ccc(-c2ccc(NS(=O)(=O)c3ccc([N+](=O)[O-])cc3)cc2)nn1`, the EC50 is 2650 nM. For `Cc1ccccc1-n1c(=O)c(C#N)cc2c(=O)n3ccccc3nc21` the value was > 16000 nM (inactive); for `CCN(CC)c1ccc(/C=N/Nc2nc3ccccc3[nH]2)cc1`, 870 nM.

With `COCc1nnc(NC(=O)c2ccc(S(=O)(=O)N3CCCCCC3)cc2)o1`, the half-maximal effective concentration (EC50) is 12900 nM. For `CCCc1cc(C(=O)Nc2sc3c(c2C#N)CCC3)no1` the value was > 15000 nM (inactive); for `c1csc(CNc2ncnc3sccc23)c1`, 1760 nM; for `Cc1cc(C)n(-c2nc3ccccc3c(=O)n2OCC#N)n1`, 456 nM. Regarding `O=C(/C=C/c1ccco1)Oc1cc(Br)cc(/C=N/NC(=O)c2ccccc2O)c1`, the EC50 is 3320 nM.

Regarding `O=C(CCCCCN1C(=O)c2cccc3cccc(c23)C1=O)N1CCOCC1`, the EC50 was > 15000 nM (inactive). As for `O=C(NNC(=O)c1cc(-c2ccncc2)nc2ccccc12)c1ccccc1O`, the figure is 2290 nM; as for `C/C(CC(C)(C)C1CCCCC1)=N\NC(N)=S`, > 16000 nM (inactive). With `CC(C)c1noc2ncc(C(=O)c3cc(Cl)cc(Cl)c3O)cc12`, the concentration for a half-maximal effect (EC50) is 2910 nM. As for `O=C(CN1C(=O)S/C(=C\c2ccccn2)C1=O)Nc1ccccc1`, the figure is > 15000 nM (inactive). For `Cc1ccc(C(=O)CC(=O)COc2ccc(Cl)cc2)cc1` the value was 2980 nM.

In the case of `CCOc1ccc(C(=O)Nc2ccc(Cc3ccncc3)cc2)cc1Br`, the 50% effective concentration (EC50) is 3640 nM.

Turning to `COc1ccc(C(=O)NNC(=S)NC(=O)c2ccccc2)cc1`, the concentration giving a half-maximal response (EC50) is 2650 nM.

On to `CCCn1nc([N+](=O)[O-])c(C(C#N)c2nc3ccccc3s2)c(Cl)c1=O` (configuration not stated), for which the concentration giving a half-maximal response (EC50) is 1400 nM. For the molecule `CC(=O)c1cc(C#N)c(N2CCCC2)nc1C`, the EC50 was > 16000 nM (inactive). As for `COc1ccc(Cn2c(O)c(/C=N/NC(=O)c3cccnc3)c3ccccc3c2=O)cc1`, the figure is 765 nM; as for `COc1ccc(-c2nc(-c3ccncc3)no2)cc1OC`, 7540 nM. For `Nc1ncc(Br)cc1S(=O)(=O)Nc1cc(C(F)(F)F)cc(C(F)(F)F)c1` the value was 918 nM. As for `CC1(C)CC(N=Cc2c(O)n(Cc3ccc4c(c3)OCO4)c(=O)c3ccccc23)CC(C)(C)N1`, the figure is 3850 nM. For the molecule `CCCNC(=O)c1ccc2c(=O)c(O)c(-c3cccc(Br)c3)[nH]c2c1`, the EC50 was 3040 nM. Consider `C=C(C)c1cccc(C(C)(C)NC(=O)Nc2ccc(C(N)=O)cc2)c1`, for which the EC50 is > 15000 nM (inactive). With `CCC(=O)NC(c1ccc(C)cc1)c1cc([N+](=O)[O-])c2cccnc2c1O` (configuration not stated), the concentration for a half-maximal effect (EC50) was 513 nM. As for `Cc1nn(C)c(C)c1/C=C/C(=O)c1ccc(Cl)cc1Cl`, the figure is 1640 nM; as for `C=CCc1cccc(/C=N/NC(=O)CNc2cccc3ccccc23)c1O`, 3110 nM; as for `CCOC(=O)c1ccc(NC(=O)Nc2ccn(C)n2)cc1`, 1510 nM. In the case of `Cc1onc(-c2c(F)cccc2Cl)c1C(=O)NNC(=O)C1CCN(Cc2ccccc2)CC1`, the EC50 is > 15000 nM (inactive). For the molecule `Cc1cc(-c2cc(C(=O)O)c3ccccc3n2)c(C)s1`, the concentration for a half-maximal effect (EC50) is 2270 nM. On to `CCOc1ccc2c(c1)OC(c1ccc(C)cc1)(C(F)(F)F)NC2=O` (configuration not stated), for which the EC50 was > 16000 nM (inactive). As for `Oc1ccccc1/C=N/Nc1nccnc1Cl`, the figure is 1280 nM; as for `CCC1=NN(C(=O)c2ccccc2O)C(O)(c2ccccc2)C1` (configuration not stated), 7370 nM; as for `CCc1nnc(NC(=O)CSc2nnc(CNc3cccc(C)c3)n2-c2ccccc2)s1`, > 15000 nM (inactive).

As for `O=S(=O)(O)c1cccc2c(N=Nc3ccc(O)c4ncccc34)cccc12`, the EC50 was > 16000 nM (inactive). As for `Cc1ccc(NC(=O)C2C(C(=O)O)C3C=CC2C32CC2)cc1` (configuration not stated), the figure is > 16000 nM (inactive). For `COC(=O)N/N=C/c1ccc(-c2cc(Cl)cc(Cl)c2)o1` the value was 929 nM; for `COc1cc(OC)cc(N(C(=O)C2COc3ccccc3O2)C(C(=O)NC2CCCCC2)c2ccc(O)cc2)c1` (configuration not stated), > 16000 nM (inactive); for `COCCN1C(=O)C(O)=C(C(=O)c2ccco2)C1c1cccc(Oc2ccccc2)c1` (configuration not stated), 3840 nM. Turning to `Cc1ccc(O)c(N=Cc2cc(Cc3ccccc3)cc([N+](=O)[O-])c2O)c1`, the EC50 is 13700 nM.

For `O=C(NC(=S)NNC(=O)c1cc2ccccc2cc1O)c1ccco1`, the EC50 was 1030 nM. As for `O=C(Nc1nc(-c2ccccn2)cs1)c1cc2ccccc2o1`, the figure is 903 nM. For the molecule `Oc1c(Br)cc(Br)cc1/C=N/Nc1ccc(Cl)nn1`, the EC50 is 237 nM.

`CCN(CC)c1nc(N)c2c(N)nc3c(c2c1C#N)CC(c1ccccc1)O3` (configuration not stated): the EC50 was > 16000 nM (inactive). For `O=C(Nc1nnc(-c2ccccn2)o1)c1ccc(Br)cc1`, the EC50 was > 15000 nM (inactive). Take `COc1ccc(NC(=O)c2ccc([N+](=O)[O-])o2)cc1`: the EC50 is 1340 nM. As for `Cc1ccc2nc(/C(C#N)=C\c3ccc(OC(=O)c4cccs4)cc3)[nH]c2c1`, the figure is 528 nM; as for `Nc1[nH]c(=O)ncc1F`, 711 nM.

As for `COc1cccc(F)c1C(C[N+](=O)[O-])c1c(N)n(C)c(=O)n(C)c1=O` (configuration not stated), the EC50 was 1660 nM. Take `Oc1ccc(N=Nc2ccc3c(c2)OCCO3)c2cccnc12`: the EC50 was 804 nM. For `Oc1c(C(c2ccccn2)N2CCC(Cc3ccccc3)CC2)cc(Cl)c2cccnc12` (configuration not stated) the value was 1880 nM; for `O=C(Oc1c(Cl)cc(Cl)c2cccnc12)c1cccc([N+](=O)[O-])c1`, 444 nM; for `Cc1ccc(N=Cc2cc(Cc3ccccc3Cl)cc([N+](=O)[O-])c2O)c(O)c1`, > 15000 nM (inactive). As for `CCCCOc1ccc(-c2cc(C(=O)NNC(=S)NCC)c3ccccc3n2)cc1`, the figure is 1060 nM; as for `CCn1cc(/C=C/c2cc[n+](C)cc2)c2ccccc21`, 9300 nM.

As for `CC(C)CCNC(=O)C(c1ccco1)N(Cc1ccc(F)cc1)C(=O)c1snc(C(N)=O)c1N` (configuration not stated), the EC50 was 15800 nM.

Turning to `Cc1ccc(S(=O)(=O)NNC(=O)c2ccc(NC(=O)C3CC3)cc2)cc1`, the EC50 was > 15000 nM (inactive). As for `CCOc1cc(/C=C(\C#N)C(=O)NCC2CCCO2)ccc1OCC(N)=O` (configuration not stated), the figure is > 16000 nM (inactive); as for `O=C(O)c1ccc(CN2C(=O)CSC2=S)cc1`, > 15000 nM (inactive); as for `CN(C)c1ccc(C(=O)N/N=C/c2cc(Br)cc(Br)c2O)cc1`, 10900 nM.

On to `O=C(N/N=C/c1ccncc1)c1cc2ccccc2cc1O`, for which the EC50 is > 15000 nM (inactive).

For `Oc1c(C(c2ccccc2Cl)N2CCCC2)ccc2cccnc12` (configuration not stated), the half-maximal effective concentration (EC50) was 1250 nM.

Regarding `CCOc1ccc2nc(N3C(=O)/C(=C/c4ccccc4)NC3=S)sc2c1`, the EC50 was 1410 nM. `COc1ccc(/C=C(/NC(=O)c2ccccc2)c2nc3ccc(Cl)cc3[nH]2)cc1OC`: the EC50 was 2660 nM. As for `O=S(=O)(Nc1nc2ccccc2s1)c1ccc(Br)s1`, the figure is 1730 nM; as for `CCOc1cc(/C=N/NC(=O)c2cccnc2)ccc1OCC(N)=O`, > 15000 nM (inactive). As for `CCCCC(=O)NC(c1ccc(N(C)C)cc1)c1ccc2cccnc2c1O` (configuration not stated), the figure is 707 nM. As to `COc1cnc(-c2ccccn2)nc1Sc1ccccc1Cl`, the EC50 is > 15000 nM (inactive). As for `c1ccc2c(c1)CCN(c1ncnc3c1[nH]c1ccccc13)C2`, the figure is 558 nM; as for `Nc1nonc1C(=O)N/N=C/c1cc(Br)ccc1O`, 9340 nM; as for `O=C(NNC(=O)c1cc2ccccc2cc1O)c1cccs1`, > 15000 nM (inactive).

`COc1ccccc1OCC(=O)N/N=C/C=C/c1ccc([N+](=O)[O-])o1`: the EC50 is 1220 nM. For `C=CCc1cccc(/C=N/NC(=O)CNc2ccccc2OC)c1O`, the EC50 was 12500 nM. For `Oc1c(Cl)cc(Cl)c(Cl)c1Cc1c(O)c(Cl)cc(Cl)c1Cl` the value was 1720 nM; for `Cn1c(SCC(=O)N2CCCc3ccccc32)nnc1-c1ccccc1`, > 16000 nM (inactive); for `O=C(NCc1ccccc1)c1sc(=S)n2c1[nH]c(=O)c1ccccc12`, 948 nM. For `CCOC(=O)CC(/C(C)=N\O)c1ccccc1` (configuration not stated) the value was > 16000 nM (inactive); for `Cc1ccc(NC(=O)NC2CCCCCCC2)c(C)c1`, > 16000 nM (inactive).

As to `COc1ccc(OC)c(-n2c(CN3CCC(C(N)=O)CC3)nc3ccccc3c2=O)c1`, the EC50 was > 15000 nM (inactive). As for `Cc1ccc(-c2cc(-c3ccc(C)cc3)[n+](C)o2)cc1`, the EC50 is > 16000 nM (inactive). As for `O=C(CCc1ccccc1)NNC(=S)NC(=O)c1ccccc1`, the figure is 3130 nM; as for `CCOC(=O)Cc1csc(NC(=O)CSc2nnc(-c3ccncc3)o2)n1`, less than 120 nM. Turning to `Cc1cc(C(=O)N/N=C/c2cc(Cl)cc([N+](=O)[O-])c2O)c2ccccc2n1`, the EC50 is 2790 nM.
